Source: US4234581A, “Thieno[2,3-d]oxazines” (Mead Johnson & Company, priority 1979, dated 1980)
Counter-ions that a name gives are not always drawn. Like-named read-outs stand apart in the source and are kept apart here.

Columns and labels:
[1] = tested on: passive cutaneous anaphylaxis reaction (PCA) in the rat; assay: passive cutaneous anaphylaxis reaction (PCA) in the rat; assay type: in vivo
Procedure: Activity of test compounds in the passive cutaneous anaphylaxis reaction (PCA) in the rat has been shown in the prior art to correlate with the utility of active compounds in the treatment of immediate hypersensitivity conditions such as asthma. Rat reaginic antiserum is prepared substantially according to the method of Mota, Immunology 7, 681-699 (1964) employing male Sprague-Dawley (Carworth Farms) or Wistar (Harlan) rats weighing 100-175 g. which are injected intramuscularly with a solution of egg albumin in saline at a dose of 10 mg. per kg. and intraperitoneally with 2×10^10 Bordetella pertussis organisms. Twelve days after injection, the serum is collected and the antibody titer is determined. The sera are pooled which contain sufficient antibody to cause a 10 mm. spot in the dorsal skin of the rat in the PCA test after dilution 10 fold. The highest dilution of antiserum capable of inducing PCA in the rat 48 to 72 hrs. after injection is normally in the range of 50-80. The selected reaginic anti-sera are stored frozen until use.
For carrying out the test, groups of 5 to 10 male Sprague-Dawley (Carworth Farms) rats, each rat weighing 100-150 g., are used. Forty-eight hours prior to the test, the animals are passively sensitized by intradermal injection of 0.1 ml. of diluted antiserum at various locations on the shaved skin of the back. A dilution of antiserum is used so that a spot following challenge of 20-25 mm. in diameter is obtained. […] A latent period of 48 hrs. is usually allowed before the animals are challenged. According to the usual screening procedure, 15 min. prior to challenge the test drug is administered either by intraperitoneal injection, intravenous injection, or orally by gavage. Challenge involves an intravenous injection of a dose of 25 mg./kg. of egg albumin and 25 mg./kg. of Evans' blue dye in saline. The dye serves simply as a marker. The response of the antigen challenge in the localities on the skin which have been previously sensitized results in increased capillary permeability at the sensitized site and leakage of the blue dye into the area surrounding the sensitized site. The PCA response is scored by measuring the mean spot diameter on the excised and reversed skin 20-30 min. after challange. In each experiment a group of control animals receiving no drug is employed. The percent inhibition of the PCA is calculated by determining the mean diameters of the spots in the control and treated animals and computing the difference between the squares of the mean diameters of the control animals and the treated animals and expressing this difference as a percentage of the square of the mean diameter of the control animals. Results are expressed as percent inhibition.
Rats may be injected intradermally with 0.1 ml. of a solution containing 1 mg./ml. histamine 10 min. prior to sacrificing. This permits a determination of whether the test compound is exerting an antihistaminic effect on the end organ rather than interfering with mediator release from the mast cells in inhibiting the PCA.
Various doses of test compound in parallel experiments are employed when a dose response curve is to be constructed for quantitative comparison of potencies among active compounds. The ID50, the dose at which 50% inhibition of the PCA occurs, is determined by interpolation. In other modifications, various time intervals are allowed between drug treatment and challenge to ascertain the duration of drug effect.

[2] = tested on: immunologically induced bronchoconstriction; assay: allergic respiratory model in the rat (immunologically induced bronchoconstriction); assay type: in vivo; conditions: for ED50: 0.25 h, intraduodenal 15 min. prior to egg albumin challenge, half maximal response (ID1/2 max.), table titled Oral
[3] = tested on: passively sensitized rat peritoneal mast cells; assay: antagonism of antigen-induced histamine release from passively sensitized rat peritoneal mast cells; assay type: cell-based; conditions: in vitro; for IC50: Mast cell, egg albumin antigen challenge
Text: The method employed is similar to that described by Kusner, et al., Journal of Pharmacology and Experimental Therapeutics 184, 41-46 (1973). The test involves isolation of mast cells from the rat by lavage of the peritoneal cavity and isolation of the cellular material from the lavage fluid. The cells are sensitized by shaking in antiserum from rats sensitized as described above with respect to the passive cutaneous anaphylaxis test. The sensitized cells are then exposed to the egg albumin antigen and the release of histamine from the cells is measured by an automated fluorometric method. The inhibition of histamine release by the presence of a test compound during challenge of the sensitized cells is a measure of the activity of the test compound. Dose response curves are prepared employing various concentrations of the test substance and the concentration which inhibits histamine release by 50% (IC50) is determined by interpolation.

[4] = Acute oral toxicity in the rat; conditions: in vivo
Text: | *Acute oral toxicity in the rat.

[5] = Rat2, oral, rat, 2 hr. interval between drug dosage and challenge, read-out: PCA Response (ID50, mg./kg.)
[6] = 0.25 h, oral, rat, drug 15 min. prior to challenge, 50% inhibition of PCA, read-out: PCA Response (ID50, mg./kg.)
[7] = range for Procedures 2, 3 and 36, read-out: IC50, inhibition of histamine release

Compound `Cc1c(CC(C)C)sc2nc(CO)[nH]c(=O)c12` [Procedure 53, 2-(HYDROXYMETHYL)-5-METHYL-6-(2-METHYLPROPYL)THIENO[2,3-d]PYRIMIDINE-4-(3H)-ONE] has an ED50 [1, 5] of 28 mg/kg.
With `O=C(O)c1cc(=O)c2c(OCC(O)COc3cccc4oc(C(=O)O)cc(=O)c34)cccc2o1` [Cromolyn sodium, reference compound] the “activity on oral administration in allergic respiratory test” value ([2]; oral) was “inactive”, the IC50 ([3]; read-out: IC50, inhibition of histamine release) was 1000 nM and the ED50 ([1]; intravenous, simultaneously with the antigen, rat, read-out: ID50 in the rat PCA test) was roughly 1 mg/kg. The “activity on oral administration in PCA test” value ([1]; oral, rat) was “inactive”.
`CCOC(=O)c1nc2sc(CC)c(C)c2c(=O)[nH]1` [Procedure 27, ETHYL 6-ETHYL-3,4-DIHYDRO-5-METHYL-4-OXOTHIENO[2,3-d]PYRIMIDINE-2-CARBOXYLATE] showed an ED50 [1, 6] of 11.4 mg/kg.
`Cc1c(CC(C)C)sc2nc(C(=O)O)[nH]c(=O)c12` [Procedure 97, 3,4-Dihydro-5-methyl-6-(2-methylpropyl)-4-oxothieno[2,3-d]pyrimidine-2-carboxylic Acid Dipotassium Salt] gave an ED50 ([1]; Rattus norvegicus, intravenous, rats, read-out: ID50 in the PCA test, intravenous) of 0.14 mg/kg and an ED50 ([1]; Rattus norvegicus, oral, rats, read-out: ID50 in the PCA test, oral) of 2.7 mg/kg.
With `CCOC(=O)c1nc2sc(CC)cc2c(=O)[nH]1` [Procedure 29, ETHYL 6-ETHYL-3,4-DIHYDRO-4-OXOTHIENO[2,3-d]PYRIMIDINE-2-CARBOXYLATE] the ED50 [2] was 1 mg/kg, the LD50 [4] was 1600 to 5000 mg/kg and the ED50 [1, 6] was 3.1 mg/kg.
Work on `O=c1[nH]c(CO)nc2sc3c(c12)CCCC3` [Procedure 55, 5,6,7,8-TETRAHYDRO-2-(HYDROXYMETHYL)BENZOTHIENO[2,3-d]-4(3H)-PYRIMIDINONE] yielded an ED50 [1, 5] of 34 mg/kg.
In the case of `CCCCCCc1sc2nc(CO)[nH]c(=O)c2c1C` [Procedure 56, 6-HEXYL-2-(HYDROXYMETHYL)-5-METHYLTHIENO[2,3-d]PYRIMIDINE-4-(3H)-ONE], the ED50 [1, 6] is reported as 28 mg/kg.
`CCOC(=O)C(=O)Nc1sccc1C(N)=O` [Procedure 83, Ethyl N-[3-(Aminocarbonyl)thien-2-yl]oxamate] showed an ED50 ([1]; oral, rat, read-out: oral ED50 in the rat PCA test for antiallergic activity) of 4.5 mg/kg.
`CCOC(=O)c1nc2sc(CC(C)C)c(C)c2c(=O)[nH]1` [Procedure 28, ETHYL 3,4-DIHYDRO-5-METHYL-6-(2-METHYLPROPYL)-4-OXOTHIENO[2,3-d]PYRIMIDINE-2-CARBOXYLATE] showed an ED50 [1, 6] of less than 5 mg/kg.
With `CCCCCCc1sc2nc(C(=O)O)[nH]c(=O)c2c1C` [Procedure 36, 6-HEXYL-3,4-DIHYDRO-5-METHYL-4-OXOTHIENO[2,3-d]PYRIMIDINE-2-CARBOXYLIC ACID DISODIUM SALT HYDRATE] the IC50 [3, 7] was 300 to 800 nM, the “potency in histamine release test relative to cromolyn sodium” value [3] was “substantially more potent than cromolyn sodium” and the ED50 [1, 6] was 15 mg/kg.
With `CCOC(=O)c1nc2sc3c(c2c(=O)[nH]1)CCCC3` [Procedure 2, ETHYL 3,4,5,6,7,8-HEXAHYDRO-4-OXOBENZOTHIENO[2,3-d]PYRIMIDINE-2-CARBOXYLATE] the ED50 [2] was 3.8 mg/kg, the LD50 [4] was greater than 3160 mg/kg and the IC50 [3, 7] was 300 to 800 nM. The “potency in histamine release test relative to cromolyn sodium” value [3] was “substantially more potent than cromolyn sodium” and the ED50 [1, 6] was 15.4 mg/kg.
Work on `Cc1c(CC(C)C)sc2nc(C(=O)O)[nH]c(=O)c12` [Procedure 43, 3,4-DIHYDRO-5-METHYL-6-(2-METHYLPROPYL)-4-OXOTHIENO[2,3-d]PYRIMIDINE-2-CARBOXYLIC ACID DISODUM SALT SESQUIHYDRATE] yielded an ED50 [1, 6] of 6.7 mg/kg.
`CCc1cc2c(=O)[nH]c(C(=O)O)nc2s1` [Procedure 44, 6-ETHYL-3,4-DIHYDRO-4-OXOTHIENO[2,3-d]PYRIMIDINE-2-ARBOXYLIC ACID DISODIUM SALT DIHYDRATE] gave an ED50 [1, 6] of 13 mg/kg.
With `O=C(O)c1nc2sc3c(c2c(=O)[nH]1)CCCC3` [Procedure 3, 3,4,5,6,7,8-HEXAHYDRO-4-OXOBENZOTHIENO[2,3-d]-PYRIMIDINE-2-CARBOXYLIC ACID DISODIUM SALT DIHYDRATE] the IC50 [3, 7] was 300 to 800 nM and the “potency in histamine release test relative to cromolyn sodium” value [3] was “substantially more potent than cromolyn sodium”.
